These results are taken from patent US9669038B1, “Heterocyclic compounds and uses thereof” (Globavir BioSciences, Inc., priority 2012, dated 2017).

The subject of one series is VEGFA gene. The series can be described thus: qRT-PCR of hypoxia-induced VEGFA transcription in A549 cells. In kind it is cell-based. The following applies: hypoxia (GasPak EZ Anaerobe Pouch), real-time qRT-PCR. Here is the method:
(§1) Hypoxia was mimicked by O2 deprivation in a GasPak™ EZ Anaerobe Pouch System (BD). […] Error bars are ±s.e.m. of four independent experiments. *** P<0.001, t-test.
(§2) A549 cells, a non-small cell lung adenocarcinoma cell line, were used. It has been reported that A549 cell line produces robust upregulation of key HIF-inducible genes under hypoxia conditions. […] A549 cells were maintained in 2% serum followed by treating cells with compound or control in the media with 0.2% serum for 48 h.
(§3) mRNA levels of three HIF-1α inducible genes: VEGF, c-Met and […] in A549 cells after treatment with OOPS were measured. Data from qRT-PCR experiments showing mRNA levels of three HIF-1α inducible genes, VEGF, c-Met and LOX in A549 after treatment of the cells in a medium with OOPS is described in FIGS. 1-3. Hypoxia was mimicked by O2 deprivation in a GasPak™ EZ Anaerobe Pouch System (BD). Error bars are ±s.e.m for the experiments performed in quadruplicate. Error bars are ±s.e.m. of experiments performed in triplicate. *** P<0.001, ** P<0.01, t test.

The next series concerns c-Met gene. The series can be described thus: qRT-PCR of hypoxia-induced c-Met transcription in A549 cells. Format: cell-based. The following applies: hypoxia (GasPak EZ Anaerobe Pouch), real-time qRT-PCR. Here is the method:
as §1, §2, §3

The subject of another series is LOX gene. The experiment in a line: qRT-PCR of hypoxia-induced LOX transcription in A549 cells. Format: cell-based. The following applies: hypoxia (GasPak EZ Anaerobe Pouch), real-time qRT-PCR. Here is the method: as §1, §2, §3
Series [1] deals with HIF1α-inducible promoter activity. The series can be described thus: luciferase-based hypoxia-inducible promoter activity assay, MDA-MB-231-HRE-Luc cell line. The following applies: MDA-MB-231-HRE-Luc cells, various concentrations. Here is the method:
Results from the luciferase-based promoter activity assay with MDA-MB-231-HRE-Luc cell line treated with OOP 1 at various concentration. Hypoxia was mimicked by O2 deprivation in a GasPak™ EZ Anaerobe Pouch System (BD). Error bars represent ±s.e.m. of experiments performed in triplicates. * P<0.05, ** P<0.01, t-test, relative to sample Vehicle Hypoxia.
An analysis of hypoxia-inducible promoter activity was performed using luciferase assays in a MDA-MB-231 cell line stably transfected with hRE-hCMV-Luc plasmid. Cell lines were treated with OOP compounds at various concentrations. Hypoxia was mimicked by O2 deprivation in a GasPak™ EZ Anaerobe Pouch System (BD). Error bars represent ±s.e.m. of experiments performed in triplicates.

For the next series, the system named is MCF7 cells. The series can be described thus: gene expression profiling with Affymetrix Human Gene ST 1.0 Arrays. In kind it is cell-based. The following applies: 10 μM, hypoxia (GasPak EZ pouch), |fold-change|>2.0, P<0.005, set of 3328 transcripts. Here is the method:
(A) Agglomerative hierarchical clustering of expression changes of the 3328 transcripts induced or repressed 2-fold or more (one-way ANOVA, P<0.005) under hypoxia mimicked with GasPak EZ pouch and the four specified conditions: -, no treatment; 1, OOP 1 (10 iuM); 2, OOP 2 (10 μM), 4, OOP 4 (10 μM). Clustering was based on a Pearson centered correlation of intensity ratios for each treatment compared to hypoxic cells (controls) using average-linkage as a distance. Of this hypoxia-induced set, 148 were induced and 449 were inhibited by OOP 1, whereas 217 were induced and 371 inhibited by OOP 2 (|fold-change|>2.0, P<0.005). Treatment with control OOP 4 induced 91 and inhibited 82 transcripts (|fold-change|>2.0, P<0.005). (B) Clustering of expression changes of the 571 transcripts induced or repressed 4-fold or more (P<0.005) by hypoxia mimicked with GasPak EZ pouch under the designated treatment conditions. Clustering parameters were the same as in (A). All reported treatments are error-weighted averages from three experiments. […] Numbers inside the intersections represent hypoxia-induced transcripts affected by the treatments.
Target proteins p300 and CBP are pleiotropic multidomain coactivators, and their CH1 regions contain binding sites for multiple transcription factors. To determine nonspecific genome-wide effects of OOPS, in vitro gene expression profiling experiments were conducted with OOPS using Affymetrix Human Gene ST 1.0 Arrays containing oligonucleotide sequences representing 28,869 transcripts. In order to interrogate cellular genome for global effects, MCF7 cells were treated with OOPS.

For another series, the system named is HIF-1α. The experiment in a line: Western blot of intracellular HIF-1α levels in A549 cells. The following applies: A549 whole cell extract, 24 h incubation, hypoxia for last 18 h. In kind it is cell-based. Here is the method:
Western blot analysis of HIF-1α levels (A) with β-actin used as a control (B) in the whole cell extract of A549 cells. Cells were incubated for a total of 24 hours with OOP 2. After 6 h, hypoxia was mimicked by O2 deprivation in a GasPak™ EZ Anaerobe Pouch System (BD) for an additional 18 h.
(§4) The effect of OOPS on HIF-1α and c-met protein levels was studied. A549 cells were treated with OOPS. Cells were incubated for a total of 24 hours with OOP 2. After 6 h, hypoxia was mimicked by O2 deprivation in a GasPak™ EZ Anaerobe Pouch System (BD) for an additional 18 hours.

The subject of a further series is c-Met. The experiment in a line: Western blot of intracellular c-Met levels in A549 cells. In kind it is cell-based. The following applies: A549 whole cell extract, 24 h incubation, hypoxia for last 18 h. Here is the method:
Western blot analysis of c-Met levels (A) with β-actin used as a control (B) in the whole cell extract of A549 cells. Cells were incubated for a total of 24 hours with OOP 2. After 6 h, hypoxia was mimicked by O2 deprivation in a GasPak™ EZ Anaerobe Pouch System (BD) for an additional 18 h.
as §4

The nature of series [2]: MTT cytotoxicity assay in MCF7 cells. The following applies: human, MCF7 breast cancer cells, 1 μM to 60 μM. Format: cell-based. Here is the method: One potential issue that arises with the use of transcriptional inhibitors is their cytotoxicity. Therefore, careful assessment of the cytotoxicity is important to evaluate nonspecific, global effects on transcriptional machinery. Cytotoxicity experiments were performed in order to obtain the EC50 values of OOPS in an MCF7 breast cancer cell line.
The cells were treated with different concentrations of compound for 48 hours in serum free F-12K medium. The cells are plated into 96-well dishes (Greiner) at a density of 5,000-10,000 cells/well in 200 μl of the cell culture media prepared as recommended by the vendor (ATCC). The plates are then placed into the incubator (37° C., 5% CO2) until the desired confluence is reached (in ca. 24-72 hours). Next, the media in all wells is replaced with the solution of the OOPS compound (150 μl for 48 hour study, 200 μl for 72 hour study) in the appropriate cell culture medium. The plates are then incubated for 48 hours (37° C., 5% CO2). […] The resulting purple precipitate is then dissolved in DMSO (200 μl/well) and the absorption of the metabolite product (purple formazan) in each well is measured at 562 nm using microplate reader (BioTek Synergy II). The absorption values are plotted against the concentration of the compound and GI50 is determined.

Series [3] can be described thus: maximum tolerated dose (MTD) study. In kind it is in vivo. The following applies: Balb/C mice, intraperitoneal injection every 48 hours, up to 100 mg/kg. Here is the method:
Balb/C mice were used in an MTD experiment. 1 mouse was present in the vehicle group and 3 mice in OOP 2-treated group. Food and water ad libitum was provided as needed and according to the protocol. OOP 2 was administered by Intraperitoneal (IP) injection. OOP 2 was dissolved in sterile PBS at a concentration range between […]. Volume administered was about 100-150 μl every 48 hours. No toxicity was seen even at 100 mg/kg of OOP 2, at which point the experiment was terminated.

As to `C[C@@H]1NCCN([C@@H](C)C(=O)N2CCN([C@@H](C)C(N)=O)C(=O)[C@@H]2C)C1=O` [OOP 4], in the series with VEGFA gene, the “expression levels of VEGFA gene (mRNA)” value is “no inhibitory activity”. The “expression levels of c-Met gene (mRNA)” value with c-Met gene is given as “no inhibitory activity”. Further, in the series with LOX gene, the “expression levels of LOX gene (mRNA)” value was “no inhibitory activity”. The “HIF1α-inducible promoter activity (luciferase)” value in series [1] was “does not affect HIF1α-inducible promoter activity”. Besides, in the series with MCF7 cells, the “number of transcripts induced, of the hypoxia-induced set” value (“number of transcripts induced” for short) came to 91 and the “number of transcripts inhibited, of the hypoxia-induced set” value (from here on “number of transcripts inhibited”) worked out at 82.
For `CC(C)C[C@@H]1NCCN([C@@H](CC(C)C)C(=O)N2CCN([C@@H](CCC(N)=O)C(N)=O)C(=O)[C@@H]2C)C1=O` [OOP 2], the “expression levels of VEGFA gene (mRNA)” value with VEGFA gene is on record as “reduced expression levels of VEGFA gene”. In the series with c-Met gene, the “expression levels of c-Met gene (mRNA)” value is “reduced expression levels of c-Met gene”. For the same compound, the “expression levels of LOX gene (mRNA)” value with LOX gene was “reduced expression levels of LOX gene”. Besides, in [1], the “HIF1α-inducible promoter activity (luciferase)” value is “reduces HIF1α-inducible promoter activity in vitro in a dose-dependent manner”. Besides, the “intracellular levels of HIF-1α (Western blot)” value in the series with HIF-1α was “does not decrease the intracellular levels of HIF-1α”. Also, in the series with c-Met, the “intracellular levels of c-Met (Western blot)” value was “decreases intracellular levels of c-Met”. Also, the EC50 at 48 h in [2] amounted to 30 µM. In the series with MCF7 cells, the “number of transcripts induced” value turned out to be 217 and the “number of transcripts inhibited” value worked out at 371. Also, the “toxicity in MTD study” value in series [3] is “No toxicity”.
Regarding `CC(C)C[C@@H]1NCCN([C@@H](CC(C)C)C(=O)N2CCN([C@@H](C)C(N)=O)C(=O)[C@@H]2C)C1=O` [OOP 1], the “HIF1α-inducible promoter activity (luciferase)” value in series [1] is on record as “reduces HIF1α-inducible promoter activity in vitro in a dose-dependent manner”. Further, in series [2], the EC50 at 48 h was 30 µM. For the same compound, in the series with MCF7 cells, the “number of transcripts induced” value amounted to 148 and the “number of transcripts inhibited” value is 449.
On to `CC(C)C[C@H](N)C(=O)N1CCN([C@@H](C)C(=O)N2CCN([C@@H](C)C(N)=O)C(=O)[C@@H]2CC(C)C)C(=O)[C@@H]1CCCNC(=N)N` [OOP 3], for which the “HIF1α-inducible promoter activity (luciferase)” value in series [1] was “reduces HIF1α-inducible promoter activity in vitro in a dose-dependent manner”.
